Test results published in patent US11986471B2, “Compounds and methods of use” (Tango Therapeutics, Inc., priority 2018, dated 2024).

Assays:
[1] = molecular target: T1, PRMT5 (Homo sapiens, UniProt O14744); test: PRMT5 IC50 assay with no cofactor; format: biochemical
T1 construct: purchased Viva (custom protein)
Summary of the method: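 Values reflect IC50 (μM) on human PRMT5 under three cofactor states. Selectivity is derived as the quotient of SAM-state Ki over MTA-state Ki, with each Ki obtained from its IC50.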

[2] = tested on: HAP1 MTAP-deleted; test: SDMA in-cell western assay, HAP1 MTAP-deleted cell line; format: cell-based; conditions: for IC50: Homo sapiens, HAP1 MTAP-deleted cell line; for MTAP Intact/Deleted Ratio: IC50 ratio HAP1 MTAP-intact / HAP1 MTAP-deleted
Summary of the method: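 Readout is cellular SDMA signal by in-cell western, with IC50 values derived from it. The cells are MTAP-null HAP1, matched to an isogenic MTAP-intact HAP1 line.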

[3] = molecular target: T1, PRMT5; test: PRMT5 IC50 assay in the presence of SAM as cofactor; format: biochemical
Summary of the method: (§1)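 For the SAM-containing format, dividing IC50 by 1.5 yields Ki; for the MTA-containing format the divisor is 13.5. A third format without cofactor gives IC50 alone.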

[4] = tested on: HAP1 MTAP-intact; test: SDMA in-cell western assay, HAP1 MTAP-intact cell line; format: cell-based; conditions: Homo sapiens
Summary of the method: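 IC50 values come from SDMA in-cell western staining of HAP1 cells. The MTAP-intact line carries endogenous MTAP, while its MTAP-deleted counterpart lacks MTAP entirely. A selectivity ratio of at least 3 fold marks a compound as MTAP-selective.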

[5] = molecular target: T1, PRMT5; test: PRMT5 IC50 assay in the presence of MTA as cofactor; format: biochemical; conditions: for IC50: PRMT5, MTA as cofactor
Summary of the method: as §1

[6] = ratio between Ki in the presence of SAM and Ki in the presence of MTA
[7] = ratio between the Ki in the presence of SAM and the Ki in the presence of MTA

T1 sequence (O14744 whole entry): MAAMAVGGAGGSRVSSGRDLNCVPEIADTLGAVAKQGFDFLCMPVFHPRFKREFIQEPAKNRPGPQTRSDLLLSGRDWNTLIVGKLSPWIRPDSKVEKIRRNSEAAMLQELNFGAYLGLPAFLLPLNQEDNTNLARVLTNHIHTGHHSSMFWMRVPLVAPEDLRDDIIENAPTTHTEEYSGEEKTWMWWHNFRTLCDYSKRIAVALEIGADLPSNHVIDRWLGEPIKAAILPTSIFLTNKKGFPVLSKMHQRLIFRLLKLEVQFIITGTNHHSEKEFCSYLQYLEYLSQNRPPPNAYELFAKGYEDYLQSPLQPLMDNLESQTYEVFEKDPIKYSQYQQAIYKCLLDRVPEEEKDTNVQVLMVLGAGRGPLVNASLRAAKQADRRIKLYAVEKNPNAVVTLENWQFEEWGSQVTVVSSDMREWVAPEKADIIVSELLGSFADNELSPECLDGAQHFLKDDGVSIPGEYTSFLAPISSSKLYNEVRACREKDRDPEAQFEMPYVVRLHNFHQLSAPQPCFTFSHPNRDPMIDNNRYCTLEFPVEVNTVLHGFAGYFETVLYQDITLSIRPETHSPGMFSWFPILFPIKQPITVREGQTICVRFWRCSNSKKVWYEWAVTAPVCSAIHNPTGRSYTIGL
T1 sequence (Q9BQA1 whole entry partner): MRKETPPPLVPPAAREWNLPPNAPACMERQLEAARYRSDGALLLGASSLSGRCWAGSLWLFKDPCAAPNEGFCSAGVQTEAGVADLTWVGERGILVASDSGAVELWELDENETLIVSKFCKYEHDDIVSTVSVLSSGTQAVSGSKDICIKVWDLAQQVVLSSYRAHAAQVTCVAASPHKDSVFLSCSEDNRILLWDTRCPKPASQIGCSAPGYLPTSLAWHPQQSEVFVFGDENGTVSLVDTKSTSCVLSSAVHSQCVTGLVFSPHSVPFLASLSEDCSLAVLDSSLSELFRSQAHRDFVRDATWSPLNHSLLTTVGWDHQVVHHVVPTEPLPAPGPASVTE

SMILES | IC50 ([1]; read-out: No Co-factor IC50) | IC50 [2] | MTAP Intact/Deleted Ratio [2] | IC50 [3] | IC50 [4] | IC50 [5] | SAM/MTA Ratio [5, 6] | IC50 [1] | SAM/MTA Ratio [5, 7]
O=C(NC[C@H](O)CN1CCc2c(ccc(OCc3cnco3)c2Cl)C1)c1ccnc(NC2CC(C(F)F)C2)c1 (stereo partly drawn) [Compound 317, (S)—N-(3-(5-chloro-6-(oxazol-5-ylmethoxy)-3,4-dihydroisoquinolin-2(1H)-yl)-2-hydroxypropyl)-2-((3-(difluoromethyl)cyclobutyl)amino)isonicotinamide] | ≥ 5000 nM | ≥ 10000 nM | C* (an IC50 ratio of less than 3 fold between the IC50 in the HAP1 MTAP-intact cell line and the HAP1 MTAP-deleted cell line) | 500 to 5000 nM | ≥ 10000 nM | 50 to 500 nM | A (a Ki ratio greater than or equal to 10 fold between the Ki in the presence of SAM and the Ki in the presence of MTA) | – | –
Cc1ncoc1COc1ccc2c(c1C)CCN(C[C@@H](O)CNC(=O)c1cc(NC3COC3)nc(N3CCN(C(=O)C(C)C)CC3)n1)C2 [Compound 421, N-[(2S)-2-hydroxy-3-{5-methyl-6-[(4-methyl-1,3-oxazol-5-yl)methoxy]-1,2,3,4-tetrahydroisoquinolin-2-yl}propyl]-2-[4-(2-methylpropanoyl)piperazin-1-yl]-6-[(oxetan-3-yl)amino]pyrimidine-4-carboxamide] | ≥ 5000 nM | 1000 to 10000 nM | B* (an IC50 ratio greater than or equal to 3 fold but lower than 10 fold between the IC50 in the HAP1 MTAP-intact cell line and the HAP1 MTAP-deleted cell line) | 50 to 500 nM | ≥ 10000 nM | 50 to 500 nM | A (a Ki ratio greater than or equal to 10 fold between the Ki in the presence of SAM and the Ki in the presence of MTA) | – | –
Cc1c(OCc2cnco2)ccc2c1CCN(C[C@@H](O)CNC(=O)c1ccnc(NC3CN(C(=O)C(C)C)C3)c1)C2 [Compound 550] | – | ≥ 10000 nM | C* (an IC50 ratio of less than 3 fold between the IC50 in the HAP1 MTAP-intact cell line and the HAP1 MTAP-deleted cell line) | 50 to 500 nM | ≥ 10000 nM | 50 to 500 nM | – | ≥ 5000 nM | A (a Ki ratio greater than or equal to 10 fold between the Ki in the presence of SAM and the Ki in the presence of MTA)
Cc1ncoc1COc1ccc2c(c1C)CCN(C[C@@H](O)CNC(=O)c1cc(NC3COC3)nc(N3CCN(C(C)C)CC3)n1)C2 [Compound 444, N-[(2S)-2-hydroxy-3-{5-methyl-6-[(4-methyl-1,3-oxazol-5-yl)methoxy]-1,2,3,4-tetrahydroisoquinolin-2-yl}propyl]-6-[(oxetan-3-yl)amino]-2-[4-(propan-2-yl)piperazin-1-yl]pyrimidine-4-carboxamide] | – | 1000 to 10000 nM | C* (an IC50 ratio of less than 3 fold between the IC50 in the HAP1 MTAP-intact cell line and the HAP1 MTAP-deleted cell line) | 50 to 500 nM | ≥ 10000 nM | 50 to 500 nM | – | ≥ 5000 nM | A (a Ki ratio greater than or equal to 10 fold between the Ki in the presence of SAM and the Ki in the presence of MTA)
Cc1ncoc1COc1ccc2c(c1)CCN(C[C@@H](O)CNC(=O)c1cc(NC3CCN(C(=O)C(C)(C)C)CC3)ncn1)C2 [Compound 616, 6-{[1-(2,2-dimethylpropanoyl)piperidin-4-yl]amino}-N-[(2S)-2-hydroxy-3-{6-[(4-methyl-1,3-oxazol-5-yl)methoxy]-1,2,3,4-tetrahydroisoquinolin-2-yl}propyl]pyrimidine-4-carboxamide] | – | < 1000 nM | C* (an IC50 ratio of less than 3 fold between the IC50 in the HAP1 MTAP-intact cell line and the HAP1 MTAP-deleted cell line) | 50 to 500 nM | 1000 to 10000 nM | < 50 nM | – | 500 to 5000 nM | A (a Ki ratio greater than or equal to 10 fold between the Ki in the presence of SAM and the Ki in the presence of MTA)
Cc1c(OCc2cnco2)ccc2c1CCN(C[C@@H](O)CNC(=O)c1cc(NC3CCC3)ncn1)C2 [Compound 376, 6-(cyclobutylamino)-N-[(2S)-2-hydroxy-3-{5-methyl-6-[(1,3-oxazol-5-yl)methoxy]-1,2,3,4-tetrahydroisoquinolin-2-yl}propyl]pyrimidine-4-carboxamide] | ≥ 5000 nM | ≥ 10000 nM | C* (an IC50 ratio of less than 3 fold between the IC50 in the HAP1 MTAP-intact cell line and the HAP1 MTAP-deleted cell line) | 500 to 5000 nM | ≥ 10000 nM | 500 to 5000 nM | A (a Ki ratio greater than or equal to 10 fold between the Ki in the presence of SAM and the Ki in the presence of MTA) | – | –
Cc1c(OCc2cnco2)ccc2c1CCN(C[C@@H](O)CNC(=O)c1ccnc(NC3CCN(C(=O)C(C)C)CC3)c1)C2 [Compound 427] | – | 1000 to 10000 nM | B* (an IC50 ratio greater than or equal to 3 fold but lower than 10 fold between the IC50 in the HAP1 MTAP-intact cell line and the HAP1 MTAP-deleted cell line) | 50 to 500 nM | ≥ 10000 nM | 50 to 500 nM | – | 500 to 5000 nM | A (a Ki ratio greater than or equal to 10 fold between the Ki in the presence of SAM and the Ki in the presence of MTA)
O=C(NC[C@H](O)CN1CCc2c(ccc(OCc3cnco3)c2Cl)C1)c1ccnc(NC2CCC(F)C2)c1 (stereo partly shown) [Compound 322] | ≥ 5000 nM | ≥ 10000 nM | C* (an IC50 ratio of less than 3 fold between the IC50 in the HAP1 MTAP-intact cell line and the HAP1 MTAP-deleted cell line) | 50 to 500 nM | ≥ 10000 nM | 50 to 500 nM | A (a Ki ratio greater than or equal to 10 fold between the Ki in the presence of SAM and the Ki in the presence of MTA) | – | –
Cc1c(OCc2cnco2)ccc2c1CCN(C[C@@H](O)CNC(=O)c1ccnc(N[C@H]3C[C@@H](CO)C3)c1)C2 [Compound 487] | – | ≥ 10000 nM | C* (an IC50 ratio of less than 3 fold between the IC50 in the HAP1 MTAP-intact cell line and the HAP1 MTAP-deleted cell line) | 50 to 500 nM | ≥ 10000 nM | 50 to 500 nM | – | ≥ 5000 nM | A (a Ki ratio greater than or equal to 10 fold between the Ki in the presence of SAM and the Ki in the presence of MTA)
Cc1c(OCc2cnco2)ccc2c1CCN(C[C@@H](O)CNC(=O)c1cc(NC3CCC3)ccn1)C2 [Compound 515, 4-(cyclobutylamino)-N-[(2S)-2-hydroxy-3-{5-methyl-6-[(1,3-oxazol-5-yl)methoxy]-1,2,3,4-tetrahydroisoquinolin-2-yl}propyl]pyridine-2-carboxamide] | – | 1000 to 10000 nM | C* (an IC50 ratio of less than 3 fold between the IC50 in the HAP1 MTAP-intact cell line and the HAP1 MTAP-deleted cell line) | 500 to 5000 nM | 1000 to 10000 nM | 50 to 500 nM | – | ≥ 5000 nM | A (a Ki ratio greater than or equal to 10 fold between the Ki in the presence of SAM and the Ki in the presence of MTA)
Cc1c(OCc2cnco2)ccc2c1CCN(C[C@@H](O)CNC(=O)c1ccnc(NC3CCN(C(=O)CC(C)C)CC3)c1)C2 [Compound 447, (S)—N-(2-hydroxy-3-(5-methyl-6-(oxazol-5-ylmethoxy)-3N-dihydroisoquinolin-2(1H)-yl)propyl)-2-((1-(3-methylbutanoyl)piperidin-4-yl)amino)isonicotinamide] | – | < 1000 nM | A* (an IC50 ratio greater than or equal to 10 fold between the IC50 in the HAP1 MTAP-intact cell line and the HAP1 MTAP-deleted cell line) | 50 to 500 nM | ≥ 10000 nM | 50 to 500 nM | – | 500 to 5000 nM | A (a Ki ratio greater than or equal to 10 fold between the Ki in the presence of SAM and the Ki in the presence of MTA)
Cc1ncoc1COc1ccc2c(c1)CCN(C[C@@H](O)CNC(=O)c1ccc(OC3CCN(Cc4ccncc4)CC3)cc1)C2 [Compound 416, N-[(2S)-2-hydroxy-3-{6-[(4-methyl-1,3-oxazol-5-yl)methoxy]-1,2,3,4-tetrahydroisoquinolin-2-yl}propyl]-4-{[1-[(pyridin-4-yl)methyl]piperidin-4-yl}oxy)benzamide] | 500 to 5000 nM | < 1000 nM | C* (an IC50 ratio of less than 3 fold between the IC50 in the HAP1 MTAP-intact cell line and the HAP1 MTAP-deleted cell line) | 50 to 500 nM | < 1000 nM | 50 to 500 nM | A (a Ki ratio greater than or equal to 10 fold between the Ki in the presence of SAM and the Ki in the presence of MTA) | – | –
Cc1c(OCc2cnco2)ccc2c1CCN(C[C@@H](O)CNC(=O)c1ccnc(NC3CN(C(=O)C4CCC4)C3)c1)C2 [Compound 586, (S)-2-((1-(cyclobutanecarbonyl)azetidin-3-yl)amino)-N-(2-hydroxy-3-(5-methyl-6-(oxazol-5-ylmethoxy)-3N-dihydroisoquinolin-2(1H)-yl)propyl)isonicotinamide] | – | 1000 to 10000 nM | B* (an IC50 ratio greater than or equal to 3 fold but lower than 10 fold between the IC50 in the HAP1 MTAP-intact cell line and the HAP1 MTAP-deleted cell line) | 50 to 500 nM | ≥ 10000 nM | 50 to 500 nM | – | 500 to 5000 nM | A (a Ki ratio greater than or equal to 10 fold between the Ki in the presence of SAM and the Ki in the presence of MTA)
